In ChEMBL document CHEMBL5726932, “Cyclopropanecarboxylic acid GPR120 modulators” (2018) one finds EC50 data, which are given here for two compounds.

This assay addresses T1, Free fatty acid receptor 4 (Homo sapiens, UniProt Q5NUL3).
T1 sequence (Q5NUL3 whole entry): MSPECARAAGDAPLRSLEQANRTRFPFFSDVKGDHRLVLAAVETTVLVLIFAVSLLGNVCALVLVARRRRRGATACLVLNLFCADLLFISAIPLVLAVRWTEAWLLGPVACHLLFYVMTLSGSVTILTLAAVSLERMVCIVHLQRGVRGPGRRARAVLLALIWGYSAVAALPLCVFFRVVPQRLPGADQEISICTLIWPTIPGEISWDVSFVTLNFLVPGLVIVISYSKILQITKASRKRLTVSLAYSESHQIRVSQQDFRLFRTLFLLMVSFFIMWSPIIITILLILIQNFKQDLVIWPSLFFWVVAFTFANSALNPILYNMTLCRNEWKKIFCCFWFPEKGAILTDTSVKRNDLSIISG
The assay can be described thus: GPR120 pERK assay: For the pERK assay, 3×10^6 cells/mL cryopreserved human and mouse cells were thawed rapidly in a 37° C. water bath and added to a T-225 flask containing 50 mL growth medium. The flasks were placed in a tissue culture incubator overnight (37° C., 5% CO2). The next day, cells were harvested with trypsin (Gibco Cat. #25300-054), resuspended in serum-containing growth medium and counted using a Cellometer and volume adjusted to a concentration of 0.5×10^6 cells/mL. Cells were plated into 384-well clear bottom tissue culture plates (BD Cat. #353962) at 50 μL/well, for a density of 25,000 cells/well using a MULTIDROP® and incubated for 16-18 hours (overnight) at 37° C. with 5% CO2. The next day, cells were washed once with 50 μL of PBS without Ca++/Mg++ (Gibco Cat. #14190-036) and serum starved in 25 μL of F-12 media without any serum or antibiotics for 2 hours at 37° C.Test compounds were 3-fold, 11-point serially diluted in DMSO in a REMP assay plate (Matrix Cat. #4307) by Tecan and 5 μL was transferred into an ECHO source plate (Labcyte Cat. #LC-0200). Cells were then stimulated with 40 nL of compound dilutions using ECHO liquid handler for 7 min at 37° C. […].

The structures appear in SMILES notation. pEC50: −log10 of the molar value.

With `O=C(O)C1CC1COc1ccc(-c2ccccc2-c2ccccc2)cc1` (configuration not stated), the negative logarithm of the EC50 (pEC50) is 5.16.
`O=C(O)C1CC1COc1ccc(-c2cccc(-c3ccccc3)c2)cc1` (configuration not stated): the pEC50 is 5.77.

For orientation: pEC50 means −log10 of the EC50, conventionally taken in molar units. Higher therefore signals a low EC50.
